Measured values published in patent US10428142B2, “Multipartite signaling proteins and uses thereof” (BLUEBIRD BIO, INC., priority 2013, dated 2019).
Like-named read-outs stand apart in the source and are kept apart here.

Assays:
K562-CD19 cells [1] = conditions: for elimination of K562-CD19 cells by bridging factor: rapamycin 10 nM or AP21967 100 nM, 5:1
Description: The transduced T cells were then co-incubated with about a 50:50 mixture of the K562 target cells expressing either CD19 (K562-CD19) or CD20 (K562-CD20) to evaluate antigen-specific cytotoxicity. […] The DARIC antigen binding component includes a CD19 antigen binding scFv domain and a FKBP12 multimerization domain, which was linked to a mCherry fluorescent protein.
In addition, two distinct T cell populations were mixed, wherein one population was expressing a DARIC antigen binding component and the other population was expressing a DARIC signaling component.

K562-CD19 cells [2] = experiment: Deactivation of DARIC cytotoxicity using an anti-bridging factor; format: cell-based, human
Description: Deactivation of the DARIC system by the addition of a pharmacological agent that competes for binding to one of the multimerization domains was tested. Primary human T cells expressing either a traditional CD19 targeting CAR or primary human T cells expressing the CD19 targeting DARIC components (SEQ ID NO.:66) were co-incubated with 50:50 mixtures of K562-CD19 and K562-CD20 cells.

K562-CD19 target cells [3] = test system: K562-CD19 target cells
Description: (§1) A broad range of bridging factor (rapamycin and everolimus) concentrations were tested to determine whether a DARIC system can function at clinically relevant concentrations. As in the Example 4, primary human T cells were isolated, activated, and then transduced with lentiviral vectors expressing a DARIC binding component (SEQ ID NOS.:1, 4, 7) and a DARIC signaling component (SEQ ID NOS.:15, 19, 23). The DARIC expressing T cells were then co-incubated with 50:50 mixtures of the K562-CD19 and K562-CD20 target cells to evaluate antigen-specific cytotoxicity. The overall ratio of T cells to K562 cells was 5:1 in all samples.

K562-CD19 target cells [4] = experiment: Titration of bridging factors, DARIC T cell cytotoxicity; conditions: DARIC expressing T cells, 5:1, 50:50 K562-CD19:K562-CD20
Description: as §1

CO[C@H]1[C@@H](O)[C@H](C)C[C@H](C)/C=C/C=C/C=C(\C)[C@@H](c2c[nH]c3c(C)cccc23)C[C@@H]2CC[C@@H](C)[C@@](O)(O2)C(=O)C(=O)N2CCCC[C@H]2C(=O)O[C@H]([C@H](C)C[C@@H]2CC[C@@H](O)[C@H](OC)C2)C[C@H](O)[C@H](C)/C=C(\C)[C@H]1O [AP21967, C-16-(S)-7-methylindolerapamycin]
elimination of K562-CD19 cells by bridging factor (K562-CD19 cells [1]; T cells with CD19 scFv-FKBP12 binding component and FRB (2021-2113) T2098L signaling component): elimination of the CD19 expressing K562 cells
elimination of K562-CD19 cells by bridging factor (K562-CD19 cells [1]; T cells with CD19 scFv-FKBP12 binding component and FRB signaling component): no effect on cell survival

C=CC[C@@H]1/C=C(\C)C[C@H](C)C[C@H](OC)[C@H]2O[C@@](O)(C(=O)C(=O)N3CCCC[C@H]3C(=O)O[C@H](/C(C)=C/[C@@H]3CC[C@@H](O)[C@H](OC)C3)[C@H](C)[C@@H](O)CC1=O)[C@H](C)C[C@@H]2OC [FK506]
reduction in antigen specific cytotoxicity when added (K562-CD19 cells [2]; CD19 targeting CAR T cells): minimal reduction
reduction in antigen specific cytotoxicity when added (K562-CD19 cells [2]; CD19 targeting DARIC T cells with rapamycin): marked reduction

CO[C@H]1C[C@@H]2CC[C@@H](C)[C@@](O)(O2)C(=O)C(=O)N2CCCC[C@H]2C(=O)O[C@H]([C@H](C)C[C@@H]2CC[C@@H](OCCO)[C@H](OC)C2)CC(=O)[C@H](C)/C=C(\C)[C@@H](O)[C@@H](OC)C(=O)[C@H](C)C[C@H](C)/C=C/C=C/C=C/1C [everolimus]
cytotoxicity responses over bridging factor concentration (K562-CD19 target cells [3]): maintained to sub-nanomolar drug concentrations

CO[C@H]1C[C@@H]2CC[C@@H](C)[C@@](O)(O2)C(=O)C(=O)N2CCCC[C@H]2C(=O)O[C@H]([C@H](C)C[C@@H]2CC[C@@H](O)[C@H](OC)C2)CC(=O)[C@H](C)/C=C(\C)[C@@H](O)[C@@H](OC)C(=O)[C@H](C)C[C@H](C)/C=C/C=C/C=C/1C [rapamycin]
cytotoxicity by bridging factor (K562-CD19 cells [1]; mixed T cell populations, one expressing the binding component, the other the signaling component): cytotoxicity response against K562-CD19 cells
cytotoxicity responses over bridging factor concentration (K562-CD19 target cells [4]): maintained to sub-nanomolar drug concentrations
